Activity calls are given as the source filed them.
Key:
SK-MEL-2 = test: Growth inhibition of human SK-MEL-2 cells after 48 hrs by sulforhodamine B assay; format: functional; conditions: SK-MEL-2, 48 h
OVCAR-5 = test: Growth inhibition of human OVCAR5 cells after 48 hrs by sulforhodamine B assay; format: functional; conditions: OVCAR-5, 48 h
TK-10 [1] = test: Growth inhibition of human TK10 cells at 10 uM after 48 hrs by sulforhodamine B assay; format: functional, cell-based
SW-620 = test: Growth inhibition of human SW620 cells at 10 uM after 48 hrs by sulforhodamine B assay; format: functional, cell-based
MDA-MB-468 = test: Growth inhibition of human MDA-MB-468 cells at 10 uM after 48 hrs by sulforhodamine B assay; format: functional, cell-based
HCT-116 [2] = test: Growth inhibition of human HCT116 cells at 10 uM after 48 hrs by sulforhodamine B assay; format: functional, cell-based
NCI-H226 = test: Growth inhibition of human NCI-H226 cells at 10 uM after 48 hrs by sulforhodamine B assay; format: functional, cell-based
OVCAR-3 [3] = test: Growth inhibition of human OVCAR3 cells after 48 hrs by sulforhodamine B assay; format: functional; conditions: OVCAR-3, 48 h
HCC 2998 = test: Growth inhibition of human HCC2998 cells after 48 hrs by sulforhodamine B assay; format: functional; conditions: HCC 2998, 48 h
ACHN [4] = test: Growth inhibition of human ACHN cells at 10 uM after 48 hrs by sulforhodamine B assay; format: functional, cell-based
COLO 205 = test: Growth inhibition of human COLO205 cells at 10 uM after 48 hrs by sulforhodamine B assay; format: functional, cell-based
NCI-H522 = test: Growth inhibition of human NCI-H522 cells at 10 uM after 48 hrs by sulforhodamine B assay; format: functional, cell-based
SR = test: Growth inhibition of human SR cells at 10 uM after 48 hrs by sulforhodamine B assay; format: functional, cell-based
U-251 [5] = test: Growth inhibition of human U251 cells at 10 uM after 48 hrs by sulforhodamine B assay; format: functional, cell-based
CCRF-CEM = test: Growth inhibition of human CCRF-CEM cells at 10 uM after 48 hrs by sulforhodamine B assay; format: functional, cell-based
MDA-MB-435 = test: Growth inhibition of human MDA-MB-435 cells after 48 hrs by sulforhodamine B assay; format: functional; conditions: MDA-MB-435, 48 h
KM12 [6] = test: Growth inhibition of human KM12 cells at 10 uM after 48 hrs by sulforhodamine B assay; format: functional, cell-based
U-251 [7] = test: Growth inhibition of human U251 cells after 48 hrs by sulforhodamine B assay; format: functional; conditions: U-251, 48 h
OVCAR-3 [8] = test: Growth inhibition of human OVCAR3 cells at 10 uM after 48 hrs by sulforhodamine B assay; format: functional, cell-based
MOLT-4 = test: Growth inhibition of human MOLT4 cells at 10 uM after 48 hrs by sulforhodamine B assay; format: functional, cell-based
NCI-H460 = test: Growth inhibition of human NCI-H460 cells at 10 uM after 48 hrs by sulforhodamine B assay; format: functional, cell-based
HL-60(TB) = test: Growth inhibition of human HL-60(TB) cells at 10 uM after 48 hrs by sulforhodamine B assay; format: functional, cell-based
OVCAR-8 = test: Growth inhibition of human OVCAR8 cells after 48 hrs by sulforhodamine B assay; format: functional; conditions: OVCAR-8, 48 h
SF-295 = test: Growth inhibition of human SF295 cells after 48 hrs by sulforhodamine B assay; format: functional; conditions: SF-295, 48 h
HCT-116 [9] = test: Growth inhibition of human HCT116 cells after 48 hrs by sulforhodamine B assay; format: functional; conditions: HCT-116, 48 h
Hs-578T = test: Growth inhibition of human Hs 578T cells after 48 hrs by sulforhodamine B assay; format: functional
ACHN [10] = test: Growth inhibition of human ACHN cells after 48 hrs by sulforhodamine B assay; format: functional
DU-145 = test: Growth inhibition of human DU145 cells at 10 uM after 48 hrs by sulforhodamine B assay; format: functional, cell-based
SK-MEL-28 = test: Growth inhibition of human SK-MEL-28 cells after 48 hrs by sulforhodamine B assay; format: functional; conditions: SK-MEL-28, 48 h
KM12 [11] = test: Growth inhibition of human KM12 cells after 48 hrs by sulforhodamine B assay; format: functional; conditions: KM12, 48 h
HOP-62 = test: Growth inhibition of human HOP62 cells after 48 hrs by sulforhodamine B assay; format: functional; conditions: HOP-62, 48 h
786-0 = test: Growth inhibition of human 786-0 cells after 48 hrs by sulforhodamine B assay; format: functional; conditions: 786-0, 48 h
TK-10 [12] = test: Growth inhibition of human TK10 cells after 48 hrs by sulforhodamine B assay; format: functional; conditions: TK-10, 48 h
HOP-92 = test: Growth inhibition of human HOP92 cells after 48 hrs by sulforhodamine B assay; format: functional; conditions: HOP-92, 48 h
K562 = test: Growth inhibition of human K562 cells after 48 hrs by sulforhodamine B assay; format: functional; conditions: K562, 48 h
LOX IMVI = test: Growth inhibition of human LOXIMVI cells at 10 uM after 48 hrs by sulforhodamine B assay; format: functional, cell-based
SK-OV-3 = test: Growth inhibition of human SKOV3 cells after 48 hrs by sulforhodamine B assay; format: functional; conditions: SK-OV-3, 48 h
HT-29 = test: Growth inhibition of human HT-29 cells after 48 hrs by sulforhodamine B assay; format: functional; conditions: HT-29, 48 h
HCT-15 = test: Growth inhibition of human HCT15 cells at 10 uM after 48 hrs by sulforhodamine B assay; format: functional, cell-based
SF-268 = test: Growth inhibition of human SF268 cells at 10 uM after 48 hrs by sulforhodamine B assay; format: functional, cell-based
[13] = read-out: LC50 (the source's name)

O=C1/C(=C\c2cccn2Cc2ccccc2)c2ccccc2N1c1c(Cl)cccc1Cl
0.97 µM: GI50 (HOP-92)
0.87 µM: GI50 (HCC 2998)
3.89 µM: GI50 (OVCAR-5)
2.23 µM: GI50 (SK-MEL-2)
0.64 µM: GI50 (TK-10 [12])
3.38 µM: GI50 (HCT-116 [9])
0.74 µM: GI50 (OVCAR-3 [3])
6.45 µM: GI50 (HT-29)
17.8 µM: TGI (HOP-92)
active: growth inhibition (GI) (TK-10 [1]) | growth inhibition (GI) (SW-620) | growth inhibition (GI) (MDA-MB-468) | growth inhibition (GI) (HCT-116 [2]) | growth inhibition (GI) (NCI-H226) | growth inhibition (GI) (ACHN [4]) | growth inhibition (GI) (COLO 205) | growth inhibition (GI) (NCI-H522) | growth inhibition (GI) (SR) | growth inhibition (GI) (U-251 [5]) | growth inhibition (GI) (CCRF-CEM) | growth inhibition (GI) (KM12 [6]) | growth inhibition (GI) (OVCAR-3 [8]) | growth inhibition (GI) (MOLT-4) | growth inhibition (GI) (NCI-H460) | growth inhibition (GI) (HL-60(TB)) | growth inhibition (GI) (DU-145) | growth inhibition (GI) (LOX IMVI) | growth inhibition (GI) (HCT-15) | growth inhibition (GI) (SF-268)
> 100 µM: TGI (SK-MEL-2) | CC50 (SK-MEL-2; [13]) | TGI (OVCAR-5) | CC50 (OVCAR-5; [13]) | TGI (OVCAR-3 [3]) | CC50 (OVCAR-3 [3]; [13]) | TGI (HCC 2998) | CC50 (HCC 2998; [13]) | GI50 (MDA-MB-435) | TGI (MDA-MB-435) | CC50 (MDA-MB-435; [13]) | GI50 (U-251 [7]) | TGI (U-251 [7]) | CC50 (U-251 [7]; [13]) | GI50 (OVCAR-8) | TGI (OVCAR-8) | CC50 (OVCAR-8; [13]) | GI50 (SF-295) | TGI (SF-295) | CC50 (SF-295; [13]) | TGI (HCT-116 [9]) | CC50 (HCT-116 [9]; [13]) | GI50 (Hs-578T) | TGI (Hs-578T) | CC50 (Hs-578T; [13]) | TGI (ACHN [10]) | CC50 (ACHN [10]; [13]) | GI50 (SK-MEL-28) | TGI (SK-MEL-28) | CC50 (SK-MEL-28; [13]) | TGI (KM12 [11]) | CC50 (KM12 [11]; [13]) | GI50 (HOP-62) | TGI (HOP-62) | CC50 (HOP-62; [13]) | GI50 (786-0) | TGI (786-0) | CC50 (786-0; [13]) | TGI (TK-10 [12]) | CC50 (TK-10 [12]; [13]) | CC50 (HOP-92; [13]) | GI50 (K562) | TGI (K562) | CC50 (K562; [13]) | GI50 (SK-OV-3) | TGI (SK-OV-3) | CC50 (SK-OV-3; [13]) | TGI (HT-29) | CC50 (HT-29; [13])
8.31 µM: GI50 (ACHN [10])
0.38 µM: GI50 (KM12 [11])
